Results on one compound are retold here after US20250064762A1, “A SUBSTITUTED AROMATIC DICARBONIC ACID AMIDE AS AN INHIBITOR OF THE FERROPTOSIS SUPPRESSOR PROTEIN-1 (FSP1)” (JULIUS-MAXIMILIANS-UNIVERSITÄT WÜRZBURG, priority 2021, published 2025).

In test [1] the test system is mouse embryonic fibroblasts (MEFs). Nature of the test: FIN-induced ferroptosis in Pgp-wildtype or heterozygous Pgp-inactivated MEFs. In kind it is cell-based. As to the method: Cells were seeded onto 96-well plates (5,000 cells per well), and treated with serial dilutions of ferroptosis-inducing compounds (erastin, BSO, RSL3, FIN56) or cytotoxic drugs (staurosporine, nocodazole, tunicamycin, paclitaxel, etoposide, menadione, rotenone, FCCP, carboplatin) in the absence or presence of CPBA or iFSP1 (100 μM or 10 μM, respectively; unless stated otherwise) or the DMSO solvent control. Ferroptotic cell death was evaluated by incubating in the absence or presence of liproxstatin-1 (100 nM), ferrostatin-1 (200 nM), or deferoxamine (100 μM). Cell viability was assessed after 16 h using AquaBluer as an indicator of viable cells according to the manufacturer's recommendations (MultiTarget Pharmaceuticals, LLC). Fluorescence (excitation, 540 nm; emission, 590 nm) was analyzed on a Clariostar microplater reader.
The above experiment was repeated in mouse embryonic fibroblasts (MEFs) generated from Pgp-wildtype (Pgp^fl/fl) or heterozygous Pgp-inactivated mouse embryos (Pgp^fl/D34N).

In another test the test system is HT1080 cells. Nature of the test: Mass spectrometry lipidomics of CPBA-treated cells. The class given is cell-based, human. The following applies: 200 μM CPBA, 16 h. As to the method: Mass spectrometry-based lipid analysis was performed by Lipotype GmbH (Dresden, Germany) as described (Sampaio et al. 2011). Lipids were extracted using a two-step chloroform/methanol procedure (Ejsing et al. 2009). […]
Samples were analyzed by direct infusion on a QExactive mass spectrometer (Thermo Fisher Scientific) equipped with a TriVersa NanoMate ion source (Advion Biosciences). Samples were analyzed in both positive and negative ion modes with a resolution of Rm/z=200=280000 for MS and Rm/z=200=17500 for MSMS experiments, in a single acquisition. […]
Data were analyzed with in-house developed lipid identification software based on LipidXplorer (Herzog et al. 2011; Herzog et al. 2012). […]
Next, we analyzed the lipidomic signature of HT1080 cells treated with CPBA (200 μM, 16 h) using the lipidomics methods described above. […]

`O=C(Nc1ccccc1C(=O)O)c1ccc(Oc2ccc(C(=O)Nc3ccccc3C(=O)O)cc2)cc1` [CPBA, 2-[[4-[4-[(2-carboxyphenyl)carbamoyl]phenoxy]benzoyl]amino]-benzoic acid]: the “sensitization to FIN-induced ferroptosis in Pgp^fl/fl and Pgp^fl/D34N cells” value in test [1] was “able to sensitize both Pgp^fl/fl and Pgp^fl/D34N cells to FIN-induced ferroptosis”. For the same compound, in the test with HT1080 cells, the “PUFA ether lipids (PE-O, PC-O)” value is reported as “downregulate polyunsaturated fatty acid (PUFA) ether lipids” and the PUFA-triacylglycerides entry was “upregulate PUFA-triacylglycerides (PUFA-TAGS)”.
